# Test results from patent US10590132B2, “Selective estrogen receptor down-regulators” (AstraZeneca AB, priority 2017, dated 2020).
# System: not listed separately
# Test: Human plasma protein binding (equilibrium dialysis)
# Type: in vitro ADME
# Conditions: dialysis 18 hours
# Description: The automated equilibrium dialysis assay in human plasma uses the RED (Rapid Equilibrium Dialysis) Device and sample handling. The assay generally runs over two to three days including delivery of results. After dialysis for 18 hours, plasma and buffer samples are prepared for analysis by liquid chromatography and mass spectrometry. Samples are generally tested in singlicates and quantified by LC/MSMS by using a 7-point calibration curve in plasma. The compounds are pooled together in plasma pools up to 10 compounds. Three reference compounds are used in each run, Propranolol, Metoprolol and Warfarin. Warfarin is used as a control in each pool and Propranolol and Metoprolol are placed randomly in each run. An in-house Excel macro is used for preparation of files for the robot and the mass spectrometer and is also used for the calculations of fraction unbound (fu %) in plasma.
row,SMILES,Human plasma protein binding (% free)
1,"COCc1ccc(OCCNCCCF)cc1[C@@H]1c2[nH]c3ccccc3c2C[C@@H](C)N1CC(F)(F)F [Example 71, 3-fluoro-N-(2-(4-(methoxymethyl)-3-((1R,3R)-3-methyl-2-(2,2,2-trifluoroethyl)-2,3,4,9-tetrahydro-1H-pyrido[3,4-b]indol-1-yl)phenoxy)ethyl)propan-1-amine]",0.44
2,"COc1ccc(OCCNCCCF)c(F)c1[C@@H]1c2[nH]c3ccc(F)cc3c2C[C@@H](C)N1CC(F)(F)CO [Example 86, 2,2-difluoro-3-((1R,3R)-6-fluoro-1-(2-fluoro-3-(2-((3-fluoropropyl)amino)ethoxy)-6-methoxyphenyl)-3-methyl-1,3,4,9-tetrahydro-2H-pyrido[3,4-b]indol-2-yl)propan-1-ol]",2.6
3,"C[C@@H]1Cc2c([nH]c3ccc(F)cc23)[C@@H](c2c(F)ccc(NCCNCCCF)c2F)N1CC(F)(F)CO [Example 89, 3-((1R,3R)-1-(2,6-difluoro-3-((2-((3-fluoropropyl)amino)ethyl)amino)phenyl)-6-fluoro-3-methyl-1,3,4,9-tetrahydro-2H-pyrido[3,4-b]indol-2-yl)-2,2-difluoropropan-1-ol]",<3.4
4,"C[C@@H]1Cc2c([nH]c3ccccc23)[C@@H](c2c(F)c(F)cc(OCCNCCCF)c2F)N1CC(F)(F)F [Example 32, 3-fluoro-N-(2-(2,4,5-trifluoro-3-((1R,3R)-3-methyl-2-(2,2,2-trifluoroethyl)-2,3,4,9-tetrahydro-1H-pyrido[3,4-b]indol-1-yl)phenoxy)ethyl)propan-1-amine]",0.52
5,"Cc1c(OCCN(C)CCCF)ccc(F)c1[C@@H]1c2[nH]c3ccccc3c2C[C@@H](C)N1CCC(=O)O [Example 163, 3-((1R,3R)-1-(6-fluoro-3-(2-((3-fluoropropyl)(methyl)amino)ethoxy)-2-methylphenyl)-3-methyl-1,3,4,9-tetrahydro-2H-pyrido[3,4-b]indol-2-yl)propanoic Acid]",49
6,"COc1cc(F)c(OCCNCCCF)cc1[C@@H]1c2[nH]c3ccccc3c2C[C@@H](C)N1CC(F)(F)F [Example 28, 3-fluoro-N-(2-(2-fluoro-4-methoxy-5-((1R,3R)-3-methyl-2-(2,2,2-trifluoroethyl)-2,3,4,9-tetrahydro-1H-pyrido[3,4-b]indol-1-yl)phenoxy)ethyl)propan-1-amine]",1.2
7,"C[C@@H]1Cc2c([nH]c3ccccc23)[C@@H](c2cc(OCCNCCCF)ccc2Cl)N1CC(F)(F)F [Example 22, N-(2-(4-chloro-3-((1R,3R)-3-methyl-2-(2,2,2-trifluoroethyl)-2,3,4,9-tetrahydro-1H-pyrido[3,4-b]indol-1-yl)phenoxy)ethyl)-3-fluoropropan-1-amine]",0.61
8,"Cc1ccc(OCCNCCCF)c(C)c1[C@@H]1c2[nH]c3ccccc3c2C[C@@H](C)N1CC(F)(F)F [Example 79, N-(2-(2,4-dimethyl-3-((1R,3R)-3-methyl-2-(2,2,2-trifluoroethyl)-2,3,4,9-tetrahydro-1H-pyrido[3,4-b]indol-1-yl)phenoxy)ethyl)-3-fluoropropan-1-amine]",<0.4
9,"Cc1c(OCCN(C)CCCF)ncc(F)c1[C@@H]1c2[nH]c3ccccc3c2C[C@@H](C)N1C(C)CC(=O)O (single isomer, unassigned) [Example 159]",13
10,"C[C@@H]1Cc2c([nH]c3ccccc23)[C@@H](c2cc(OCCNCCCF)cc(F)c2F)N1CC(F)(F)F [Example 30, N-(2-(3,4-difluoro-5-((1R,3R)-3-methyl-2-(2,2,2-trifluoroethyl)-2,3,4,9-tetrahydro-1H-pyrido[3,4-b]indol-1-yl)phenoxy)ethyl)-3-fluoropropan-1-amine]",0.72
11,"C[C@@H]1Cc2c([nH]c3ccc(F)cc23)[C@@H](c2c(F)cnc(OCCN(C)CCCF)c2F)N1CC(F)(F)CO [Example 67, 3-((1R,3R)-1-(3,5-difluoro-2-(2-((3-fluoropropyl)(methyl)amino)ethoxy)pyridin-4-yl)-6-fluoro-3-methyl-1,3,4,9-tetrahydro-2H-pyrido[3,4-b]indol-2-yl)-2,2-difluoropropan-1-ol]",1.6
12,"C[C@@H]1Cc2c([nH]c3c(F)cccc23)[C@@H](c2c(F)ccc(OCCNCCCF)c2F)N1CC(F)(F)CO [Example 60, 3-((1R,3R)-1-(2,6-difluoro-3-(2-((3-fluoropropyl)amino)ethoxy)phenyl)-8-fluoro-3-methyl-1,3,4,9-tetrahydro-2H-pyrido[3,4-b]indol-2-yl)-2,2-difluoropropan-1-ol]",1.9
13,"Cc1c([C@@H]2c3[nH]c4ccccc4c3C[C@@H](C)N2CC(F)(F)F)ccnc1OCCNCCCF [Example 106, 3-fluoro-N-(2-((3-methyl-4-((1R,3R)-3-methyl-2-(2,2,2-trifluoroethyl)-2,3,4,9-tetrahydro-1H-pyrido[3,4-b]indol-1-yl)pyridin-2-yl)oxy)ethyl)propan-1-amine]",0.34
14,"Cc1c([C@@H]2c3[nH]c4ccccc4c3C[C@@H](C)N2C[C@@H](C)C(=O)O)ccnc1OCCN(C)CCCF [Example 161, (R)-3-((1R,3R)-1-(2-(2-((3-fluoropropyl)(methyl)amino)ethoxy)-3-methylpyridin-4-yl)-3-methyl-1,3,4,9-tetrahydro-2H-pyrido[3,4-b]indol-2-yl)-2-methylpropanoic Acid]",6.3
15,"COc1ccc(OCCNCCCF)c(F)c1[C@@H]1c2[nH]c3ccccc3c2C[C@@H](C)N1CC1(F)COC1 [Example 84, 3-fluoro-N-(2-(2-fluoro-3-((1R,3R)-2-((3-fluorooxetan-3-yl)methyl)-3-methyl-2,3,4,9-tetrahydro-1H-pyrido[3,4-b]indol-1-yl)-4-methoxyphenoxy)ethyl)propan-1-amine]",6
16,"C[C@@H]1Cc2c([nH]c3ccccc23)[C@@H](c2cc(OCCNCCCF)ccc2Cl)N1CC(F)(F)CO [Example 44, 3-((1R,3R)-1-(2-chloro-5-(2-((3-fluoropropyl)amino)ethoxy)phenyl)-3-methyl-1,3,4,9-tetrahydro-2H-pyrido[3,4-b]indol-2-yl)-2,2-difluoropropan-1-ol]",2.3
17,"C[C@@H]1Cc2c([nH]c3ccc(F)cc23)[C@@H](c2c(F)cnc(OCCNCCCF)c2F)N1CC1(F)CC1 [Example 109, N-(2-((3,5-difluoro-4-((1R,3R)-6-fluoro-2-((1-fluorocyclopropyl)methyl)-3-methyl-2,3,4,9-tetrahydro-1H-pyrido[3,4-b]indol-1-yl)pyridin-2-yl)oxy)ethyl)-3-fluoropropan-1-amine]",1.9
18,"C[C@@H]1Cc2c([nH]c3ccccc23)[C@@H](c2c(F)ccc(OCCNCCCF)c2F)N1CC(F)F [Example 51, N-(2-(3-((1R,3R)-2-(2,2-difluoroethyl)-3-methyl-2,3,4,9-tetrahydro-1H-pyrido[3,4-b]indol-1-yl)-2,4-difluorophenoxy)ethyl)-3-fluoropropan-1-amine]",2.3
19,"C[C@@H]1Cc2c([nH]c3ccccc23)[C@@H](c2nccc(OCCNCCCF)c2Cl)N1CC(F)(F)F [Example 93, N-(2-((3-chloro-2-((1S,3R)-3-methyl-2-(2,2,2-trifluoroethyl)-2,3,4,9-tetrahydro-1H-pyrido[3,4-b]indol-1-yl)pyridin-4-yl)oxy)ethyl)-3-fluoropropan-1-amine]",0.34

# Target: Estrogen Receptor (ERα) in MCF-7 cells (Homo sapiens (Human), UniProt P03372)
# Sequence (P03372 whole entry): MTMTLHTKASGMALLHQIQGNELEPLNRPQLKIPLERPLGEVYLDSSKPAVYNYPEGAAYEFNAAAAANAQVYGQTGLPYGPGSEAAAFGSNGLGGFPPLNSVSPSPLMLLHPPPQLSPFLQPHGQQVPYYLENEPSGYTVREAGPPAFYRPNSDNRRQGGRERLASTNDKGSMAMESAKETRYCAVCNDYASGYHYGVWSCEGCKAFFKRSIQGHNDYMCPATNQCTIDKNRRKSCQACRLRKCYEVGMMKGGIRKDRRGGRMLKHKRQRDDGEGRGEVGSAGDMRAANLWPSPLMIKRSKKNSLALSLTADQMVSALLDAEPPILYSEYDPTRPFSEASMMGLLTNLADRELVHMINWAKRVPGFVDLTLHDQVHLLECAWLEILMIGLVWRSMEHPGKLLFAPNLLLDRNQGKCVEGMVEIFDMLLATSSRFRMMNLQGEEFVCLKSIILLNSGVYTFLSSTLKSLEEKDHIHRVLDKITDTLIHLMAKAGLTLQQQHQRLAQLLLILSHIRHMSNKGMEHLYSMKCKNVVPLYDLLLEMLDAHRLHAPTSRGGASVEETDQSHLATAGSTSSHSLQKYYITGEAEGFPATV
# Test: MCF-7 ER down-regulation assay (immuno-fluorescence)
# Type: cell-based
# Conditions: maximum downregulation in the assay
# Description: The ability of compounds to down-regulate Estrogen Receptor (ER) numbers was assessed in a cell based immuno-fluorescence assay using the MCF-7 human ductal carcinoma breast cell line. MCF-7 cells were revived directly from a cryovial (approx 5×10^6 cells) in Assay Medium (phenol red free Dulbecco's Modified Eagle's medium (DMEM); Sigma D5921) containing 2 mM L-Glutamine and 5% (v/v) Charcoal/Dextran treated foetal calf serum. Cells were syringed once using a sterile 18G×1.5 inch (1.2×40 mm) broad gauge needle and cell density was measured using a Coulter Counter (Beckman). […] Following cell seeding, plates were incubated overnight at 37° C., 5% CO2 (Liconic carousel incubator). Test data was generated using the LabCyte Echomodel 555 compound reformatter which is part of an automated workcell (Integrated Echo 2 workcell). Compound stock solutions (10 mM) of the test compounds were used to generate a 384 well compound dosing plate (Labcyte P-05525-CV1). […] 40 μL of DMSO added to wells in row P on the source plate allowed for DMSO normalisation across the dose range. […]
# The Echo uses acoustic technology to perform direct microplate-to-microplate transfers of DMSO compound solutions to assay plates. […] 20 μL of PBS was added to each well and the plates covered with a black plate seal and stored at 4° C. before being read. […]
row,SMILES,% downregulation (in brackets) [%]
1,"COCc1ccc(OCCNCCCF)cc1[C@@H]1c2[nH]c3ccccc3c2C[C@@H](C)N1CC(F)(F)F [Example 71, 3-fluoro-N-(2-(4-(methoxymethyl)-3-((1R,3R)-3-methyl-2-(2,2,2-trifluoroethyl)-2,3,4,9-tetrahydro-1H-pyrido[3,4-b]indol-1-yl)phenoxy)ethyl)propan-1-amine]",90
